Patent US20100016355A1, “ALPHA-2B ADRENERGIC RECEPTOR AGONIST AND SEROTONIN-NOREPINEPHRINE REUPTAKE INHIBITOR COMPOSITIONS FOR TREATING CHRONIC PAIN” (priority 2006, published 2010)

Tested on: Chung rat model of chronic pain (allodynia)
Assay: Chung rat model of chronic pain
Format: in vivo
Settings: rats
Protocol: Amitriptyline was administered intraperitoneally to rats at a minimally effective dose; that is, the compound was administered at a dose that, when administered alone, is the minimum dose required to relieve pain (this dose was calculated by finding, first, the dose that produced drug's maximum effect—that is, the dose that fully alleviated pain—and dividing that dose by […]; the result is a dose that is slightly less than 50% of the dose that is required to produce the drug's maximum effect) The rats then immediately received one of two alpha-2B receptor agonists, compound No. 95 and compound no. No. 27, or received no additional compound, at all. Compound No. 95 and Compound No. 27 were administered intraperitoneally at ineffective doses; that is, these compounds were administered at doses that, when administered alone, are not effective in relieving pain. Pain reversal was then assessed using the Chung rat model of chronic pain. The model is described by Kim and Chung, Pain, […], at 355-363 (1992) and in U.S. Pat. No. 7,091,232, both of which are incorporated by reference herein.

CN(C)CCC=C1c2ccccc2CCc2ccccc21 [Amitriptyline, reference compound]
Pain Reversal (amitriptyline alone, 30 μg/kg intraperitoneally (minimally effective dose)): 43% | Pain Reversal (amitriptyline alone, 30 μg/kg intraperitoneally (minimally effective dose), listed as amitriptyline): 43%

C1=NC(CC2CCc3ccccc3C2)CN1 (stereo not shown) [Compound No. 27]
Pain Reversal (Compound No. 27 10 μg/kg i.p. (ineffective dose alone) given immediately after amitriptyline 30 μg/kg i.p.): 81%

C[C@@H](c1c[nH]c(=S)[nH]1)c1cccc2ncccc12 [Compound No. 95]
Pain Reversal (Compound No. 95 1 μg/kg i.p. (ineffective dose alone) given immediately after amitriptyline 30 μg/kg i.p.): 80%
